From patent publication US11696913B2, “Prolonged ectoparasite-controlling agent for animal” (MITSUI CHEMICALS AGRO, INC., priority 2017, dated 2023)
Read-outs that look alike come from different tables or passages of the source.

Tests used:
Amblyomma americanum = test: In vitro contact test with hard ticks (Amblyomma americanum nymphs); conditions: read-out: acaricidal activity; for pest or weed control at 0.2 µg/cm2, 0.2 µg/cm2: dose 0.2 μg/cm^2, 48 h; for pest or weed control at 1 µg/cm2, 1 µg/cm2: dose 1 μg/cm^2, 48 h
Method in brief: (§1)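 Acaricidal activity = % ticks dead or moribund after 48 h contact with acetone-deposited compound on vial walls (e.g., 900 ppm solution → 5 μg/cm^2). Ambient conditions for R. sanguineus, 21° C./85% rel. hum. for other species; heat challenge at 45-50° C. separated climbers from moribund ticks.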

Dermacentor variabilis = test: In vitro contact test with adult hard ticks (Dermacentor variabilis); conditions: read-out: acaricidal activity; for pest or weed control at 0.2 µg/cm2, 0.2 µg/cm2: dose 0.2 μg/cm^2, 48 h; for pest or weed control at 1 µg/cm2, 1 µg/cm2: dose 1 μg/cm^2, 48 h
Method in brief: as §1

Rhipicephalus sanguineus = test: In vitro contact test with adult hard ticks (Rhipicephalus sanguineus); conditions: read-out: acaricidal activity; for pest or weed control at 0.2 µg/cm2, 0.2 µg/cm2: dose 0.2 μg/cm^2, 48 h; for pest or weed control at 1 µg/cm2, 1 µg/cm2: dose 1 μg/cm^2, 48 h
Method in brief: as §1

[1] = tested on: Rhipicephalus (Boophilus) microplus; test: In vitro injection test with Rhipicephalus (Boophilus) microplus (BOOPMI Inj); conditions: 168 h, laid fertile eggs after 7 days, read-out: acaricidal activity; for pest or weed control at 32 ng: dose 0.032 μg/animal injected; for pest or weed control at 0.00016 mg: dose 0.16 μg/animal injected; for pest or weed control at 0.0008 mg: dose 0.8 μg/animal injected
Method in brief: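 Five engorged adult females each get a 1 μl abdominal injection of compound dissolved and diluted in DMSO. Kept 7 days at 28° C./85% rel. hum.; percent activity rates egg laying and egg fertility (0% all fertile, 100% none laid or infertile).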

Ctenocephalides felis [2] = test: Ctenocephalides felis in-vitro feeding test with fleas (CTECFE oral); conditions: 48 hours, read-out: insecticidal feeding activity; for pest or weed control at 0.032 ppm: dose 0.032 ppm in citrated cattle blood; for pest or weed control at 0.16 ppm: dose 0.16 ppm in citrated cattle blood; for pest or weed control at 0.8 ppm: dose 0.8 ppm in citrated cattle blood; for pest or weed control at 4 ppm: dose 4 ppm in citrated cattle blood
Method in brief: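 Scored as percent fleas killed (0–100%) 48 hours after feeding began. Compound, dissolved in DMSO and diluted into citrated cattle blood, was offered via a parafilm membrane to roughly 20 adult male and female C. felis at about 37° C.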

Ctenocephalides felis [3] = test: Systemic treatment in-vivo test with cat flea on rats; conditions: Ctenocephalides felis, ip, intraperitoneal injection, 10 mg/kg
Method in brief: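 Rats dosed intraperitoneally per body weight in glycerol formal (up to 25% NMP for poorly soluble compounds). 30 D. variabilis nymphs released on treatment day and weekly, 30 C. felis fleas 24 h later; live attached engorged ticks counted at 48 h (±4 h), live fleas at 24 h, efficacy versus placebo group.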

Spodoptera litura = test: Insecticidal testing against common cutworm; assay type: in vivo; conditions: foliar, 144 h, concentration 100 ppm, cabbage leaf dip, second-stage larvae, after 6 days, read-out: pesticidal rate
Text: Insecticidal Testing Against Common Cutworm (Spodoptera litura)

Plutella xylostella = test: Insecticidal testing against diamondback moth; assay type: in vivo; conditions: foliar, 144 h, concentration 100 ppm, cabbage leaf dip, third-stage larvae, after 6 days, read-out: pesticidal rate
Text: Insecticidal Testing Against Diamondback Moth (Plutella xylostella)

[4] = SD 2, read-out: Geometric mean percent reduction in live flea (Ctenocephalides felis) counts compared to untreated control rats
[5] = SD 9, read-out: Geometric mean percent reduction in live flea (Ctenocephalides felis) counts compared to untreated control rats
[6] = SD 16, read-out: Geometric mean percent reduction in live flea (Ctenocephalides felis) counts compared to untreated control rats
[7] = SD 23, read-out: Geometric mean percent reduction in live flea (Ctenocephalides felis) counts compared to untreated control rats

Row | Structure (SMILES) | pest or weed control at 0.2 µg/cm2, 0.2 µg/cm2 (Amblyomma americanum) | pest or weed control at 1 µg/cm2, 1 µg/cm2 (Amblyomma americanum) | pest or weed control at 0.2 µg/cm2, 0.2 µg/cm2 (Dermacentor variabilis) | pest or weed control at 1 µg/cm2, 1 µg/cm2 (Dermacentor variabilis) | pest or weed control at 0.2 µg/cm2, 0.2 µg/cm2 (Rhipicephalus sanguineus) | pest or weed control at 1 µg/cm2, 1 µg/cm2 (Rhipicephalus sanguineus) | pest or weed control at 32 ng [1] | pest or weed control at 0.00016 mg [1] | pest or weed control at 0.0008 mg [1] | pest or weed control at 0.032 ppm (Ctenocephalides felis [2]) | pest or weed control at 0.16 ppm (Ctenocephalides felis [2]) | pest or weed control at 0.8 ppm (Ctenocephalides felis [2]) | pest or weed control at 4 ppm (Ctenocephalides felis [2]) | inhibition in vivo at 10 mg/kg (Ctenocephalides felis [3]; [4]) | inhibition in vivo at 10 mg/kg (Ctenocephalides felis [3]; [5]) | inhibition in vivo at 10 mg/kg (Ctenocephalides felis [3]; [6]) | inhibition in vivo at 10 mg/kg (Ctenocephalides felis [3]; [7]) | pest or weed control at 100 ppm (Spodoptera litura) | pest or weed control at 100 ppm (Plutella xylostella) | further results
1 | CN(C(=O)c1ccc(F)cc1)c1cccc(C(=O)Nc2c(I)cc(C(F)(C(F)(F)F)C(F)(F)F)cc2OC(F)(F)F)c1F [Compound 74] | 90% | 90% | 90% | 90% | 90% | 90% | 100% | 100% | 100% | 95% | 95% | 95% | 95% | 91% | 96% | 86% | 89% | ≥ 70% | ≥ 70% | pest or weed control at 0.04 µg/cm2, 0.04 µg/cm2 (Rhipicephalus sanguineus; dose 0.04 μg/cm^2, 48 h): 90%; inhibition in vivo at 10 mg/kg (Ctenocephalides felis [3]; SD 30, read-out: Geometric mean percent reduction in live flea (Ctenocephalides felis) counts compared to untreated control rats): 78%
2 | CN(C(=O)c1ccc(F)cc1)c1cccc(C(=O)Nc2c(I)cc(C(F)(C(F)(F)F)C(F)(F)C(F)(F)F)cc2OC(F)F)c1F (stereo not shown) [Compound 103] | 90% | 90% | 90% | 90% | 90% | 90% | 100% | 100% | 100% | 95% | 95% | 95% | 95% | 100% | 92% | 70% | 20% | ≥ 70% | ≥ 70% | pest or weed control at 0.04 µg/cm2, 0.04 µg/cm2 (Dermacentor variabilis; dose 0.04 μg/cm^2, 48 h): 90%; pest or weed control at 6.4 ng ([1]; dose 0.0064 μg/animal injected): 100%; pest or weed control at 0.0064 ppm (Ctenocephalides felis [2]; dose 0.0064 ppm in citrated cattle blood): 95%
